Experimental data published in the NIST ThermoML archive (doi:10.1016/j.tca.2018.03.002).
± gives the expanded uncertainty stated by the source.

Conditions: Crystal; DTA

| Structure (SMILES) | Normal melting temperature [°C] |
| --- | --- |
| CC(=O)O [acetic acid] | 16.80 ± 6 |
| CCCC(=O)O [butanoic acid] | -4.50 ± 4 |

Further lines, results first:

| Normal melting temperature [°C] | Structure (SMILES) |
| --- | --- |
| 9.70 ± 8 | O=CO [formic acid] |
| -21.20 ± 2 | CCC(=O)O [propanoic acid] |
| 0.00 ± 2 | O [water] |
